Experimental data published in paper PMC10729961, “Putative purine nucleoside interacting residues in the malaria parasite purine uptake transporter PfENT1 are critical for transporter function” (PLOS ONE, 2023).

How the values were obtained:
Experiment in all cases: [3H]adenosine uptake assay, competition with cold uridine
Assay type in all cases: cell-based
PfENT1 A134C = molecular target: T1, PfENT1 A134C (Plasmodium falciparum, UniProt Q8IDM6, A134C)
T1 construct: expressed in transfected cells; host or cells: purine auxotrophic yeast (ade2Δ, fui1Δ), pCM189 episomal plasmid
Protocol: (§1) The radiolabeled uptake assay measures the ability of an unlabeled purine or pyrimidine substrate to inhibit the uptake of radiolabeled substrate into yeast via PfENT1 as previously described. Yeast strains containing PfENT1 (mutant or WT) were grown overnight in SDM media to a final OD600 between 0.2 and 0.5. Purine auxotrophic yeast used as a negative control were grown in YPD media. Yeast were spun down and washed three times with 15 mL phosphate buffered saline (PBS; 137 mM NaCl, 2.7 mM KCl, 10 mM KH2PO4, 10 mM Na2HPO4, pH 7.4). The final volume of yeast in PBS varied but it was diluted to a final OD600 = 0.2. […] For the dilution series, unlabeled purine/pyrimidine (Fischer Scientific Cat. #12-565-501) with a starting concentration of 25 mM was serially diluted 1:3 in PBS for a final concentration range of 3.28 nM to 6.25 mM. Yeast were incubated with radioactive substrate and the unlabeled purine/pyrimidine for 15 min. […] This ensured that competition only occurred at the transporter and not at cytoplasmic metabolic enzymes, because those are different for purines and pyrimidines. For determination of minimal and maximal uptake, yeast strains were incubated without radioactivity or with radioactivity but no cold substrate competition, respectively. […] Mats were allowed to air dry and sealed in sample bags with 5 mL of BetaPlate Scint scintillant cocktail (Perkin Elmer Cat. #1205–4401). The amount of radioactivity in each well was measured by liquid scintillation counting using a 1450 MicroBeta TriLux (Perkin Elmer). The counts per minute (cpm) were recorded and technical triplicates were averaged. IC50 values were calculated, and statistical analysis was performed using GraphPad/Prism9 software. Each experiment was repeated at least three times on separate days.
(§2) Statistical significance was calculated using one-way analysis of variance (ANOVA) with GraphPad/Prism9 software. IC50 values were calculated using the non-linear regression dose-response inhibition log(inhibitor) vs normalized response program. Cpm data was background subtracted by the cpm in yeast expressing WT PfENT1 in cold purine/pyrimidine. Data was normalized to the highest value for each mutant.

PfENT1 D287C = molecular target: T2, PfENT1 D287C (Plasmodium falciparum, UniProt Q8IDM6, D287C); details: cold uridine vs [3H]adenosine uptake, 15 min
T2 construct: expressed in transfected cells; host or cells: purine auxotrophic Saccharomyces cerevisiae (ade2Δ, fui1Δ), pCM189 episomal plasmid
Protocol: as §1, §2

PfENT1 F286C = molecular target: T3, PfENT1 F286C (Plasmodium falciparum, UniProt Q8IDM6, F286C)
T3 construct: expressed in transfected cells; host or cells: purine auxotrophic yeast (ade2Δ, fui1Δ), pCM189 episomal plasmid
Protocol: as §1, §2

PfENT1 F288C = molecular target: T4, PfENT1 F288C (Plasmodium falciparum, UniProt Q8IDM6, F288C)
T4 construct: expressed in transfected cells; host or cells: purine auxotrophic Saccharomyces cerevisiae (ade2Δ, fui1Δ), pCM189 episomal plasmid
Protocol: as §1, §2

PfENT1 I137C = molecular target: T5, PfENT1 I137C (Plasmodium falciparum, UniProt Q8IDM6, I137C)
T5 construct: expressed in transfected cells; host or cells: purine auxotrophic yeast (ade2Δ, fui1Δ), pCM189 episomal plasmid
Protocol: as §1, §2

PfENT1 L289C = molecular target: T6, PfENT1 L289C (Plasmodium falciparum, UniProt Q8IDM6, L289C)
T6 construct: expressed in transfected cells; host or cells: purine auxotrophic Saccharomyces cerevisiae (ade2Δ, fui1Δ), pCM189 episomal plasmid
Protocol: as §1, §2

PfENT1 L50C = molecular target: T7, PfENT1 L50C (Plasmodium falciparum, UniProt Q8IDM6, L50C); details: cold uridine vs [3H]adenosine uptake, 15 min
T7 construct: expressed in transfected cells; host or cells: purine auxotrophic yeast (ade2Δ, fui1Δ), pCM189 episomal plasmid
Protocol: as §1, §2

PfENT1 N51C = molecular target: T8, PfENT1 N51C (Plasmodium falciparum, UniProt Q8IDM6, N51C)
T8 construct: expressed in transfected cells; host or cells: purine auxotrophic yeast (ade2Δ, fui1Δ), pCM189 episomal plasmid
Protocol: as §1, §2

PfENT1 Q135C = molecular target: T9, PfENT1 Q135C (Plasmodium falciparum, UniProt Q8IDM6, Q135C); details: cold uridine vs [3H]adenosine uptake, 15 min
T9 construct: expressed in transfected cells; host or cells: purine auxotrophic yeast (ade2Δ, fui1Δ), pCM189 episomal plasmid
Protocol: as §1, §2

PfENT1 R291C = molecular target: T10, PfENT1 R291C (Plasmodium falciparum, UniProt Q8IDM6, R291C); details: cold uridine vs [3H]adenosine uptake, 15 min
T10 construct: expressed in transfected cells; host or cells: purine auxotrophic Saccharomyces cerevisiae (ade2Δ, fui1Δ), pCM189 episomal plasmid
Protocol: as §1, §2

PfENT1 S290C = molecular target: T11, PfENT1 S290C (Plasmodium falciparum, UniProt Q8IDM6, S290C); details: cold uridine vs [3H]adenosine uptake, 15 min
T11 construct: expressed in transfected cells; host or cells: purine auxotrophic Saccharomyces cerevisiae (ade2Δ, fui1Δ), pCM189 episomal plasmid
Protocol: as §1, §2

PfENT1 S48C = molecular target: T12, PfENT1 S48C (Plasmodium falciparum, UniProt Q8IDM6, S48C)
T12 construct: expressed in transfected cells; host or cells: purine auxotrophic yeast (ade2Δ, fui1Δ), pCM189 episomal plasmid
Protocol: as §1, §2

PfENT1 S49C = molecular target: T13, PfENT1 S49C (Plasmodium falciparum, UniProt Q8IDM6, S49C)
T13 construct: expressed in transfected cells; host or cells: purine auxotrophic yeast (ade2Δ, fui1Δ), pCM189 episomal plasmid
Protocol: as §1, §2

PfENT1 T136C = molecular target: T14, PfENT1 T136C (Plasmodium falciparum, UniProt Q8IDM6, T136C)
T14 construct: expressed in transfected cells; host or cells: purine auxotrophic yeast (ade2Δ, fui1Δ), pCM189 episomal plasmid
Protocol: as §1, §2

PfENT1 V52C = molecular target: T15, PfENT1 V52C (Plasmodium falciparum, UniProt Q8IDM6, V52C)
T15 construct: expressed in transfected cells; host or cells: purine auxotrophic yeast (ade2Δ, fui1Δ), pCM189 episomal plasmid
Protocol: as §1, §2

PfENT1 W53C = molecular target: T16, PfENT1 W53C (Plasmodium falciparum, UniProt Q8IDM6, W53C); details: cold uridine vs [3H]adenosine uptake, 15 min
T16 construct: expressed in transfected cells; host or cells: purine auxotrophic yeast (ade2Δ, fui1Δ), pCM189 episomal plasmid
Protocol: as §1, §2

WT PfENT1 = molecular target: T17, WT PfENT1 (Plasmodium falciparum, UniProt Q8IDM6)
T17 construct: expressed in transfected cells; host or cells: purine auxotrophic yeast (ade2Δ, fui1Δ), pCM189 episomal plasmid
Protocol: as §1, §2

[1] = system: purine auxotrophic yeast (ade2Δ, fui1Δ); details: ade2Δ strain; cold uridine vs [3H]adenosine uptake, 15 min
Protocol: as §1, §2

T12 sequence (Q8IDM6 whole entry S48C): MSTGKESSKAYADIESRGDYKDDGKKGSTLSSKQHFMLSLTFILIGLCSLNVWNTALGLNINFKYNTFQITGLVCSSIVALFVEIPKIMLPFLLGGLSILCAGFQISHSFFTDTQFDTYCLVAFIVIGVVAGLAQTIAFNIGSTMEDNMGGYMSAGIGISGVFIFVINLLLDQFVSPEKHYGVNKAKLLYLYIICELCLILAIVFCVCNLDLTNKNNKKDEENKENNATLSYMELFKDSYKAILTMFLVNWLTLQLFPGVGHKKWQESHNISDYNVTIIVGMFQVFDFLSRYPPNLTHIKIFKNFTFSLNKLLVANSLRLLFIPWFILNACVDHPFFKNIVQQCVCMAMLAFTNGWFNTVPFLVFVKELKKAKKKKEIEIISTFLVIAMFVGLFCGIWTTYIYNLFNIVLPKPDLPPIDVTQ
T6 sequence (Q8IDM6 whole entry L289C): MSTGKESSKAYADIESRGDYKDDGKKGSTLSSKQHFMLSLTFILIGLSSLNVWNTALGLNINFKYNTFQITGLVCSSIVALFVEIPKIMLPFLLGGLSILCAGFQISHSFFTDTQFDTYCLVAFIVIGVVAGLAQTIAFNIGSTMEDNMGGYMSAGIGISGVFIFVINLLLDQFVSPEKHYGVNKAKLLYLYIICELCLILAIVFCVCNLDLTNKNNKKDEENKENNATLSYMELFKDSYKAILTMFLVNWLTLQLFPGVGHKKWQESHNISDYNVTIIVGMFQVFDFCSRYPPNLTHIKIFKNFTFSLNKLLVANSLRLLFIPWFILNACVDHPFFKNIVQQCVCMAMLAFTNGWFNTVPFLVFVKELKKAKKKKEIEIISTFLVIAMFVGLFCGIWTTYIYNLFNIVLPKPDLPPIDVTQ
T13 sequence (Q8IDM6 whole entry S49C): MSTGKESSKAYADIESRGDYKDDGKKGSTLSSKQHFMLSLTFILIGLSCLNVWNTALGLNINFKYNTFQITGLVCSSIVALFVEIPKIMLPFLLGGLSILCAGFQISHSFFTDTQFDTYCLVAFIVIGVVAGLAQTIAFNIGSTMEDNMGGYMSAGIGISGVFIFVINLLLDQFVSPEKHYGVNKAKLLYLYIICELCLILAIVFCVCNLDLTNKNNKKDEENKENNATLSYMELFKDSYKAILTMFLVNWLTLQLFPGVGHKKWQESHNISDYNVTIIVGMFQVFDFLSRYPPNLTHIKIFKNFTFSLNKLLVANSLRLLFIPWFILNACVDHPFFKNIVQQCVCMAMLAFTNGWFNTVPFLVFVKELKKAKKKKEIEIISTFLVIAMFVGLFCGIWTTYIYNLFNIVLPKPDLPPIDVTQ
T4 sequence (Q8IDM6 whole entry F288C): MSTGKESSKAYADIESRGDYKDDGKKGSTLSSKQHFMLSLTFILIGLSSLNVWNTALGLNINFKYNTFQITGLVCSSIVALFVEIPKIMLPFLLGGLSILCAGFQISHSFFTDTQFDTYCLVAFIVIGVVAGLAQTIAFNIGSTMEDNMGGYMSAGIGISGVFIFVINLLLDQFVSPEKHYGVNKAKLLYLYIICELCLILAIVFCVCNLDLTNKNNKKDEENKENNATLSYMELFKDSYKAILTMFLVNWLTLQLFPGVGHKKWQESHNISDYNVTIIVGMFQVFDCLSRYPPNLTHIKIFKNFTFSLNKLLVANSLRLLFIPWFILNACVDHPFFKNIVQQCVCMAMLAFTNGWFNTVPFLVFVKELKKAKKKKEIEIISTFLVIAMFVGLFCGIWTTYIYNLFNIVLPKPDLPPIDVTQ
T15 sequence (Q8IDM6 whole entry V52C): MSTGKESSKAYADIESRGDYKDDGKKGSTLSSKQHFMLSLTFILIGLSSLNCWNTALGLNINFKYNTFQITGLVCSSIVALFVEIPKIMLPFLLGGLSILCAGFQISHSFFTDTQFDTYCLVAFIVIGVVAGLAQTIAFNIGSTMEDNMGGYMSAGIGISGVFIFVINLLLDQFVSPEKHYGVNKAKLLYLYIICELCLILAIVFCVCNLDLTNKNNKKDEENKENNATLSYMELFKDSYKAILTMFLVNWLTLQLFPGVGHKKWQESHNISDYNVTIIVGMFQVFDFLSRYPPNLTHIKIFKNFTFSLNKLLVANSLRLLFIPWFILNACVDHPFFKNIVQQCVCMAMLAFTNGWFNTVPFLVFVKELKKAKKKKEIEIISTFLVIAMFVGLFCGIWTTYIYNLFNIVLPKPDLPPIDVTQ
T1 sequence (Q8IDM6 whole entry A134C): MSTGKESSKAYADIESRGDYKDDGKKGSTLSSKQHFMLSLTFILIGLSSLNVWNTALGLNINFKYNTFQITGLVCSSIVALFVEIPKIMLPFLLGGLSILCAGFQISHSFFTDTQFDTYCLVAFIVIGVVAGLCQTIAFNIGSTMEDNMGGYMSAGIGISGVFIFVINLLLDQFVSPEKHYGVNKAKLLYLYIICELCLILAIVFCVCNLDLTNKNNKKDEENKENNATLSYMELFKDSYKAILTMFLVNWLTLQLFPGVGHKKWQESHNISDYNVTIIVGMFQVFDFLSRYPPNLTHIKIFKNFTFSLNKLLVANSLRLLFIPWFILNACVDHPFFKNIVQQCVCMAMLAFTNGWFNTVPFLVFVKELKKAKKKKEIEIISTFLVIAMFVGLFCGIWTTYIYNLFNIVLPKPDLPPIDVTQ
T14 sequence (Q8IDM6 whole entry T136C): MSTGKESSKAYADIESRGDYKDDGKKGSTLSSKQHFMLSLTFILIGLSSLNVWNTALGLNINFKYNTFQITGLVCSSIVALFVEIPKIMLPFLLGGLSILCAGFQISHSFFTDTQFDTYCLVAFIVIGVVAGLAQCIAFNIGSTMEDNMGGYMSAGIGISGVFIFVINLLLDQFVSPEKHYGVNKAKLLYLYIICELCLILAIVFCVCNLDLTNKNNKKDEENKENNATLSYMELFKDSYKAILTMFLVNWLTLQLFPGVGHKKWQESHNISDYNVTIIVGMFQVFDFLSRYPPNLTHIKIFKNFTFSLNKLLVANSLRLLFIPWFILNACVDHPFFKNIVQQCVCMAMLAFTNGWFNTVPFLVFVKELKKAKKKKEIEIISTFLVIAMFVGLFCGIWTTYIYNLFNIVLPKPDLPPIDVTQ
T8 sequence (Q8IDM6 whole entry N51C): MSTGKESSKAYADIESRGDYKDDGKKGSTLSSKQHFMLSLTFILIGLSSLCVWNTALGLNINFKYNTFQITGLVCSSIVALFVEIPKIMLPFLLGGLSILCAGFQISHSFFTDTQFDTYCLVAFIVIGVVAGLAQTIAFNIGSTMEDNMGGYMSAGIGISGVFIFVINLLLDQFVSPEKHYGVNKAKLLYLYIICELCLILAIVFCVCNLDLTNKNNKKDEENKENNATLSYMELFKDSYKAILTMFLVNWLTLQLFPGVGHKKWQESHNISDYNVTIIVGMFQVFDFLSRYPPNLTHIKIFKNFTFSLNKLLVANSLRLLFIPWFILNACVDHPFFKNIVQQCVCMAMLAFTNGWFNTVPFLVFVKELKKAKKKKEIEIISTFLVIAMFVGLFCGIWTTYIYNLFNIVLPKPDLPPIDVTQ
T3 sequence (Q8IDM6 whole entry F286C): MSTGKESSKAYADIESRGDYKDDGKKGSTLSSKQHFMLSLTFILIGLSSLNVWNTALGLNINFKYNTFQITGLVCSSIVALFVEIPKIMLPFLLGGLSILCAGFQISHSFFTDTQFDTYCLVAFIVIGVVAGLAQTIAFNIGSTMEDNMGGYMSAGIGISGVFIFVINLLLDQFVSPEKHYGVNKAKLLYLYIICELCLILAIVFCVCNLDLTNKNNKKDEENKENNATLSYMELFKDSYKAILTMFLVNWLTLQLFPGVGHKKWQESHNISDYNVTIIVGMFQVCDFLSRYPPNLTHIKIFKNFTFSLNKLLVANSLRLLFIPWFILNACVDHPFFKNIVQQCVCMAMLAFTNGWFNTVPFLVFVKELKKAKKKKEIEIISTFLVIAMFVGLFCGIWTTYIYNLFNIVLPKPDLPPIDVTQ
T5 sequence (Q8IDM6 whole entry I137C): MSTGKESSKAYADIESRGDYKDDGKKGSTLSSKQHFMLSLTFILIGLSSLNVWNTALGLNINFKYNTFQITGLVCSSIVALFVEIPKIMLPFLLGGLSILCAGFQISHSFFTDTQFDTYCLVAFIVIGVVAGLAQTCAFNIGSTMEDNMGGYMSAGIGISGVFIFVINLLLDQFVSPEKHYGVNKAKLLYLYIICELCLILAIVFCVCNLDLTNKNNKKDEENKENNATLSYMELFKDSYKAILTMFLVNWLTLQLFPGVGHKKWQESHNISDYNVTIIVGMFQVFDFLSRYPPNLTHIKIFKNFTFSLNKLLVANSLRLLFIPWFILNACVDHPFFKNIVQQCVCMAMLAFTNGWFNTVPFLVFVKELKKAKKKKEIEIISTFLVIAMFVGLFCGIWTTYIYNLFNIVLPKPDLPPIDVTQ
T10 sequence (Q8IDM6 whole entry R291C): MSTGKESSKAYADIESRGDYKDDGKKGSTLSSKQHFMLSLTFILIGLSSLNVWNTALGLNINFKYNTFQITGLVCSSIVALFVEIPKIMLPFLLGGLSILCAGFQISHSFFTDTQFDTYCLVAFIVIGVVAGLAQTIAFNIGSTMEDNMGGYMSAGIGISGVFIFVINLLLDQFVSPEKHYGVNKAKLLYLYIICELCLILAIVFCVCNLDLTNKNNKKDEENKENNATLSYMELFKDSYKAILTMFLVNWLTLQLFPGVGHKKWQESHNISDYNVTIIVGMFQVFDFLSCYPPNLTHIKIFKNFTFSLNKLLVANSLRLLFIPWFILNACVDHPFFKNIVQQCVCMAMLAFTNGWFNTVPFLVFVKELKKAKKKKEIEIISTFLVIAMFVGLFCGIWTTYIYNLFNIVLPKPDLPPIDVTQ

SMILES: O=c1ccn([C@@H]2O[C@H](CO)[C@@H](O)[C@H]2O)c(=O)[nH]1 [Uridine, uridine]
- IC50 (PfENT1 A134C): 1020 ± 207 µM
- Mutant/WT Ratio Uridine (PfENT1 A134C; A134C, ratio of IC50 values): 1.02
- Average IC50 (μM) Uridine (PfENT1 D287C): no uptake
- IC50 (PfENT1 F286C): 1210 ± 139 µM
- Mutant/WT Ratio Uridine (PfENT1 F286C; F286C, ratio of IC50 values): 1.21
- IC50 (PfENT1 F288C): 850 ± 138 µM
- Mutant/WT Ratio Uridine (PfENT1 F288C; F288C, ratio of IC50 values): 0.85
- IC50 (PfENT1 I137C): 904 ± 21 µM
- Mutant/WT Ratio Uridine (PfENT1 I137C; I137C, ratio of IC50 values): 0.91
- IC50 (PfENT1 L289C): 905 ± 164 µM
- Mutant/WT Ratio Uridine (PfENT1 L289C; L289C, ratio of IC50 values): 0.91
- Average IC50 (μM) Uridine (PfENT1 L50C): no uptake
- IC50 (PfENT1 N51C): 30.9 ± 1 µM
- Mutant/WT Ratio Uridine (PfENT1 N51C; N51C, ratio of IC50 values): 0.031
- Average IC50 (μM) Uridine (PfENT1 Q135C): no uptake
- Average IC50 (μM) Uridine (PfENT1 R291C): no uptake
- Average IC50 (μM) Uridine (PfENT1 S290C): no uptake
- IC50 (PfENT1 S48C): 801 ± 46 µM
- Mutant/WT Ratio Uridine (PfENT1 S48C; S48C, ratio of IC50 values): 0.8
- IC50 (PfENT1 S49C): 1060 ± 30 µM
- Mutant/WT Ratio Uridine (PfENT1 S49C; S49C, ratio of IC50 values): 1.06
- IC50 (PfENT1 T136C): 786 ± 87 µM
- Mutant/WT Ratio Uridine (PfENT1 T136C; T136C, ratio of IC50 values): 0.79
- IC50 (PfENT1 V52C): 2820 ± 1440 µM
- Mutant/WT Ratio Uridine (PfENT1 V52C; V52C, ratio of IC50 values): 2.83
- Average IC50 (μM) Uridine (PfENT1 W53C): no uptake
- IC50 (WT PfENT1): 997 ± 90 µM
- Average IC50 (μM) Uridine [1]: no uptake
